In brackets after ≈: the same amount, converted by molar mass. Read-outs that look alike come from different tables or passages of the source. A value given as a limit tells only on which side of the number the result lay.

Data set [1] can be described thus: Posaconazole solubility in modified β and γ-cyclodextrins. The data set is classed as physicochemical. The conditions noted are these: for fold more posaconazole solubilized than Captisol: 100 mM cyclodextrin solutions; for solubility: pH 4.5, aqueous with cosolvent or surfactant or cyclodextrin. As to the method:
The solubilities of posaconazole in each of several modified β and γ-cyclodextrins were evaluated. Solubilization of posaconazole was tested with three gamma cyclodextrins; SBE (5.2)-gamma, SBE (5.2) Et (3.9)-gamma and SBE (5.2) Et (4.9)-gamma cyclodextrin, (CyDex, Inc.).
On the other hand, some changes in β-cyclodextrin substitutions did lead to greater solubilization. Utilizing 100 mM cylodextrin solutions at pH 4.5, solubilization of posaconazole with SBE (4.6)-β, SBE (4.6)-Et (3.5)-β and SBE (4.6)-Et (8.5)-β cyclodextrins, versus Captisol®, was evaluated. The SBE (4.6)-Et (3.5)-β and SBE (4.6)-Et (8.5)-β cyclodextrins solubilized 2.6 and 6.6 fold more posaconazole (respectively) than did Captisol® (See FIG. 2). However, the extensive Captisol® safety information outweighed the potential benefits of greater solubilization and, for this reason, formulations with other sulfobutyl ether cyclodextrins were not further developed.

For data set [2] the following is noted: in water; cited from earlier work.
For data set [3] the following is noted: neutral and basic aqueous solutions; cited from earlier work.
The nature of data set [4]: Posaconazole solubility in acidified Captisol solutions. The conditions noted are these: for solubility: acidified Captisol solution. It is filed as physicochemical. As to the method:
In an effort to evaluate the range of posaconazole solubilities that could be achieved at feasible pH's, a series of solutions was prepared with a fixed Captisol® concentration. Utilizing an acidic solution of 20% Captisol® (w/v), the solubility of posaconazole was increased more than 1000 times and it was determined that a target concentration of 5 mg/mL could be achieved.
Posaconazole solubility was also evaluated in acidified solutions with different Captisol® concentrations. […] Therefore, at some pH values, as the Captisol® concentration increases, the ratio of Captisol® to solubilized posaconazole will decrease. Based on this solubility effect, a formulation could be developed whereby for the same posaconazole daily dosage, the daily dose of Captisol® could be decreased.
Hydrochloric acid was used as an acidifier in the posaconazole formulation. However, several additional acidifiers (i.e., citric, sulfuric, maleic, phosphoric, acetic, L-tartaric, D-tartaric, DL-tartaric, methanesulfonic, naphthalenesulfonic, p-toluenesulfonic, lactic, L-lactic, L-ascorbic and malic acid, as well as, glycine hydrochloride) were also evaluated in regard to posaconazole solubilization.

The nature of data set [5]: Effect of co-solvents and non-ionic surfactants on posaconazole solubility in 100 mM Captisol. The data set is classed as physicochemical. The conditions noted are these: pH 4.5, aqueous with cosolvent or surfactant or cyclodextrin, thermodynamic from solid. As to the method: In an effort to explore further improvements to the formulation, the effects of various co-solvents and non-ionic surfactants, on the solubility of posaconazole in a 100 mM Captisol® solution, were examined. The Captisol® solutions were adjusted with HCl to pH 4.5 and an appropriate amount of co-solvent was added. An excess amount of posaconazole was added to the pH-adjusted cyclodextrin/co-solvent solution and the solutions were allowed to equilibrate for a period of three days. The contents of the vials were then centrifuged and the supernatant was assayed for posaconazole.

Consider SBE (4.6)-Et (8.5)-β cyclodextrin, for which the “fold more posaconazole solubilized than Captisol” value in data set [1] (pH 4.5) came out at 6.6 fold.

For “Sulfobutyl ether-β-cyclodextrins, (SBE-β-CD) sodium salt [Captisol®]”, the solubility in data set [2] was more than 800 mg/mL in water.

With SBE (4.6)-Et (3.5)-β cyclodextrin, the “fold more posaconazole solubilized than Captisol” value in data set [1] (pH 4.5) was 2.6 fold.

In the case of `CC[C@@H]([C@H](C)O)n1ncn(-c2ccc(N3CCN(c4ccc(OC[C@@H]5CO[C@@](Cn6cncn6)(c6ccc(F)cc6F)C5)cc4)CC3)cc2)c1=O` [Posaconazole, posaconazole], the solubility entry in data set [3] was “less than 1 μg/mL”; in data set [1] (highest posaconazole solubility achieved), 189 µg/mL (≈ 0.27 mM); in data set [1] (posaconazole solubility) it was 1510 µg/mL (≈ 2.15 mM); in data set [4] (pH 3, aqueous with cosolvent or surfactant or cyclodextrin, 20% Captisol, pH 3.0), 8700 µg/mL (≈ 12.4 mM); in data set [4] (pH 3.1, aqueous with cosolvent or surfactant or cyclodextrin, 20% Captisol, pH 3.1, calculated average of measured solubility at pH 3.0 and pH 3.2), 7800 µg/mL (≈ 11.1 mM); in data set [4] (pH 3.1, aqueous with cosolvent or surfactant or cyclodextrin, 40% Captisol, pH 3.1), 22500 µg/mL (≈ 32.1 mM). The solubility worked out at 6900 µg/mL (≈ 9.85 mM) in data set [4] (pH 3.2, aqueous with cosolvent or surfactant or cyclodextrin, 20% Captisol, pH 3.2); 5200 µg/mL (≈ 7.42 mM) in data set [4] (pH 3.4, aqueous with cosolvent or surfactant or cyclodextrin, 20% Captisol, pH 3.4); 4000 µg/mL (≈ 5.71 mM) in data set [4] (pH 3.6, aqueous with cosolvent or surfactant or cyclodextrin, 20% Captisol, pH 3.6); 3100 µg/mL (≈ 4.42 mM) in data set [4] (pH 3.8, aqueous with cosolvent or surfactant or cyclodextrin, 20% Captisol, pH 3.8). Moreover, the “fold less solubility with gamma cyclodextrins than with Captisol” value in data set [1] (pH 4.5) is reported as “approximately 8 fold”. In addition, in data set [4] (citric, sulfuric, maleic, phosphoric, acetic, tartaric, sulfonic, lactic, ascorbic, malic acids, glycine hydrochloride, same pH), the “posaconazole solubilization with additional acidifiers versus hydrochloric acid” value was “no improvement in solubility”. The solubility at 3 days in data set [5] (Captisol solution with co-solvent, 100 mM Captisol pH 4.5 + 10% PEG 400) was 1280 µg/mL; in data set [5] (Captisol solution with co-solvent, 100 mM Captisol pH 4.5 + 10% PVP) it was 640 µg/mL; in data set [5] (Captisol solution with co-solvent, 100 mM Captisol pH 4.5 + 10% Propylene Glycol), 410 µg/mL; in data set [5] (Captisol solution with surfactant, 100 mM Captisol pH 4.5 + 0.1% Poloxamer F-68), 1630 µg/mL; in data set [5] (Captisol solution with surfactant, 100 mM Captisol pH 4.5 + 0.1% Tween 20), 1710 µg/mL; in data set [5] (Captisol solution with surfactant, 100 mM Captisol pH 4.5 + 0.1% Tween 80), 1740 µg/mL. Also, the solubility at 3 days in data set [5] (Captisol solution, Control (100 mM Captisol), pH 4.5, three days equilibration) was found to be 1770 µg/mL (≈ 2.53 mM).
